Source: patent US20230330254A1 (Regeneron Pharmaceuticals, Inc., priority 2022, published 2023)
Where two headings read alike, the source gives them in different places. *1 amine or outer side, *2 acyl side, *3 side chain or, on linkers, in order; H or OH if unused. Where a SMILES comes first, the peptide text is derived from it. Side-chain parts run from the residue outwards. [ ]: non-standard residue; d: D form. The star is where a group is joined. PEG24 = NCCOCCOCCOCCOCCOCCOCCOCCOCCOCCOCCOCCOCCOCCOCCOCCOCCOCCOCCOCCOCCOCCOCCOCCOCCC(=O)O; Bip(2'-Et-4'-O(CH2)4NH2) = CCc1cc(OCCCCN[*:3])ccc1-c1ccc(C[C@H](N[*:1])C(=O)[*:2])cc1; Bip(2'-Et,4'-O(CH2)4N3) = CCc1cc(OCCCCN=[N+]=[N-])ccc1-c1ccc(C[C@H](N)C(=O)O)cc1; Bip(2'-Et,4'-O(CH2)4NH2) = CCc1cc(OCCCCN)ccc1-c1ccc(C[C@H](N)C(=O)O)cc1; Malonyl(2,2-Me2,histaminyl) = CC(C)(C(=O)NCCc1cnc[nH]1)C(=O)*; PEG12 = NCCOCCOCCOCCOCCOCCOCCOCCOCCOCCOCCOCCOCCC(=O)O; Nva(5-(3,5-Me2Ph)) = Cc1cc(C)cc(CCC[C@H](N)C(=O)O)c1; Ala(1H-tetrazol-5-yl) = N[C@@H](Cc1nnn[nH]1)C(=O)O; αMePhe(2-F) = C[C@](N)(Cc1ccccc1F)C(=O)O; X9 = O=C([C@@H]1CCN(CCc2cnc[nH]2)C1)*; DBCO = C1#Cc2ccccc2N(*)Cc2ccccc21; Suc = O=C(CCC(=O)[*:2])[*:1]; X1 = O=C(CCCCCc1cnc[nH]1)*; X2 = CC(C)(C(N)=O)C(=O)*

Assays:
HEK293/CRE-Luc cells = test: Luciferase reporter assay, HEK293/CRE-Luc cells without GLP1R (Example 17); type: cell-based, human
Description: (§1) To test the activity of GLP1R agonist payloads, GLP1R agonist linker-payloads (LPs), and anti-GLP1R antibody tethered drug conjugates (ATDCs) of the invention, a cell-based cAMP responsive luciferase reporter assay was developed. To generate the assay cell line, the firefly luciferase gene was placed under the control of a cAMP response element (CRE) located upstream of a minimal promoter and transfected into HEK293 cells and referred to herein as HEK293/CRE-Luc cells.
(§2) Three-fold serial dilutions of free payloads or LPs were prepared in 100% DMSO, transferred to fresh assay media, and added to the cells at a final constant DMSO concentration of 0.2%. The last well in the plate served as a blank control containing only the assay media and 0.2% DMSO (untreated well) and was plotted as a continuation of the 3-fold serial dilution. Four to six hours later, luciferase activity was determined after the addition of One-Glo™ reagent (Promega, Cat #E6130) to each well. Relative light units (RLUs) were measured on an Envision luminometer (PerkinElmer) and EC50 values were determined using a four-parameter logistic equation over a 12-point dose response curve (GraphPad Prism). The signal to noise (S/N) was determined by taking the ratio of the highest RLU on the dose response curve to the RLU in the untreated wells. Data was generated across several experiments (A-E) with M2361 serving as a reference standard in each experiment to calculate the payload relative potency ((M2361 EC50/payload EC50)*100)) and relative S/N ((payload SN/M2361 SN)*100)).

human GLP1R = human GLP1R (Homo sapiens, UniProt P43220); test: Luciferase reporter assay, HEK293/CRE-Luc/hGLP1R (Example 17); type: cell-based; parameters: engineered to express full-length human GLP1R, cynomolgus GLP1R; expressed in transfected cells; host or cells: HEK293/CRE-Luc; settings: for S/N: highest RLU / RLU of untreated wells; for Relative Potency (% M2361 EC50) / Relative Signal:Noise (% M2361): relative to M2361 of the same experiment
Chain of human GLP1R (P43220 24-463): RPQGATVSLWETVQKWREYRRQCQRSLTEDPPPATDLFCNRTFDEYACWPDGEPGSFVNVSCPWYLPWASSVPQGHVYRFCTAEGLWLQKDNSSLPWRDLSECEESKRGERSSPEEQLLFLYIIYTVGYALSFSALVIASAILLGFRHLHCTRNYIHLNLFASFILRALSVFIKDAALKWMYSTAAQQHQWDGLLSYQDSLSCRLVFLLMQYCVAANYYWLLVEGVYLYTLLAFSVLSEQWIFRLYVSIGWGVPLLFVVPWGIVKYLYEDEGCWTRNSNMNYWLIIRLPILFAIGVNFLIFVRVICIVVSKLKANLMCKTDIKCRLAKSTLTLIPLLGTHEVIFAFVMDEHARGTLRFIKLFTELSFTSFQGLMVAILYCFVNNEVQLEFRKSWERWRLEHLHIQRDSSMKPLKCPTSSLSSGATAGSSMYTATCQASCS
Description: as §1, §2

[1] = HEK293/CRE-Luc cells without hGLP1R, payloads and linker-payloads
[2] = HEK293/CRE-Luc cells without hGLP1R, payloads and linker-payloads, read-out: EC50
[3] = HEK293/CRE-Luc/hGLP1R, payloads and linker-payloads, experiments A-E, M2361 repeated in each, read-out: EC50
[4] = text b1830, read-out: EC50 in HEK293/CRE-Luc/hGLP1R cells
[5] = Table 28, reporter cells without GLP1R, read-out: HEK293/CRE-Luc EC50
[6] = Table 29, reporter cells without GLP1R, read-out: HEK293/CRE-Luc EC50

Molecule	S/N (HEK293/CRE-Luc cells; [1])	EC50 (HEK293/CRE-Luc cells; [2]) [nM]	S/N (human GLP1R; HEK293/CRE-Luc/hGLP1R)	EC50 (human GLP1R; [3]) [nM]	Relative Potency (% M2361 EC50) (human GLP1R; HEK293/CRE-Luc/hGLP1R) [%]	Relative Signal:Noise (% M2361) (human GLP1R; HEK293/CRE-Luc/hGLP1R) [%]	EC50 (human GLP1R; [4]) [nM]	EC50 (HEK293/CRE-Luc cells; [5]) [nM]	EC50 (HEK293/CRE-Luc cells; [6]) [nM]
CCc1cc(OCCCCN=[N+]=[N-])ccc1-c1ccc(C[C@H](NC(=O)[C@H](CC(=O)O)NC(=O)[C@H](CO)NC(=O)[C@@H](NC(=O)[C@](C)(Cc2ccccc2F)NC(=O)[C@@H](NC(=O)CNC(=O)[C@@H](N)Cc2nn[nH]n2)[C@@H](C)O)[C@@H](C)O)C(=O)N[C@@H](CCCc2cc(C)cc(C)c2)C(N)=O)cc1 [M2383] (H-[Ala(1H-tetrazol-5-yl)]GT[αMePhe(2-F)]TSD[Bip(2'-Et,4'-O(CH2)4N3)][Nva(5-(3,5-Me2Ph))]-NH2)	1.8	> 200	293.3	> 200	0.0	89.4	> 20	–	–
CCc1cc(OCCCCNC(=O)CCOCCOCCOCCOCCOCCOCCOCCOCCOCCOCCOCCOCCNC(=O)CCC(=O)N2Cc3ccccc3C#Cc3ccccc32)ccc1-c1ccc(C[C@H](NC(=O)[C@H](CC(=O)O)NC(=O)[C@H](CO)NC(=O)[C@@H](NC(=O)[C@](C)(Cc2ccccc2F)NC(=O)[C@@H](NC(=O)CNC(=O)[C@H](Cc2nn[nH]n2)NC(=O)C(C)(C)C(=O)NCCc2cnc[nH]2)[C@@H](C)O)[C@@H](C)O)C(=O)N[C@@H](CCCc2cc(C)cc(C)c2)C(N)=O)cc1 [LP3, DIBAC-suc-PEG12-P9] ({Malonyl(2,2-Me2,histaminyl)}-[Ala(1H-tetrazol-5-yl)]GT[αMePhe(2-F)]TSD[Bip(2'-Et-4'-O(CH2)4NH2)]([PEG12-Suc-DBCO])[Nva(5-(3,5-Me2Ph))]-NH2)	–	–	293.2	0.0976	28.0	124.3	–	–	–
CCc1cc(OCCCCNC(=O)CCOCCOCCOCCOCCOCCOCCOCCOCCOCCOCCOCCOCCOCCOCCOCCOCCOCCOCCOCCOCCOCCOCCOCCOCCNC(=O)CCC(=O)N2Cc3ccccc3C#Cc3ccccc32)ccc1-c1ccc(C[C@H](NC(=O)[C@H](CC(=O)O)NC(=O)[C@H](CO)NC(=O)[C@@H](NC(=O)[C@](C)(Cc2ccccc2F)NC(=O)[C@@H](NC(=O)CNC(=O)[C@H](Cc2nn[nH]n2)NC(=O)C(C)(C)C(N)=O)[C@@H](C)O)[C@@H](C)O)C(=O)N[C@@H](CCCc2cc(C)cc(C)c2)C(N)=O)cc1 [LP13, DIBAC-suc-PEG24-P4] (X2-[Ala(1H-tetrazol-5-yl)]GT[αMePhe(2-F)]TSD[Bip(2'-Et-4'-O(CH2)4NH2)]([PEG24-Suc-DBCO])[Nva(5-(3,5-Me2Ph))]-NH2)	1.3	> 20	79.3	4.83	0.2	110.2	–	–	–
CCc1cc(OCCCCNC(=O)[C@H](CO)NC(=O)CNC(=O)CNC(=O)CNC(=O)CNC(=O)C(CO)NC(=O)CNC(=O)CNC(=O)CNC(=O)CN)ccc1-c1ccc(C[C@H](NC(=O)[C@H](CC(=O)O)NC(=O)[C@H](CO)NC(=O)[C@@H](NC(=O)[C@](C)(Cc2ccccc2F)NC(=O)[C@@H](NC(=O)CNC(=O)[C@H](Cc2nn[nH]n2)NC(=O)C(C)(C)C(=O)NCCc2cnc[nH]2)[C@@H](C)O)[C@@H](C)O)C(=O)N[C@@H](CCCc2cc(C)cc(C)c2)C(N)=O)cc1 (stereo partly shown) [M2945]	1.4	> 20	71.8	0.0255	31.4	99.9	–	–	–
GIP [reference compound]	–	–	–	–	–	–	–	> 200	> 30
CCc1cc(OCCCCN)ccc1-c1ccc(C[C@H](NC(=O)[C@H](CC(=O)O)NC(=O)[C@H](CO)NC(=O)[C@@H](NC(=O)[C@](C)(Cc2ccccc2F)NC(=O)[C@@H](NC(=O)CNC(=O)[C@@H](N)CCC(N)=O)[C@@H](C)O)[C@@H](C)O)C(=O)N[C@@H](CCCc2cc(C)cc(C)c2)C(N)=O)cc1 [M2913]	1.1	> 200	3.2	–	0.0	4.9	–	–	–
CCc1cc(OCCCCNC(=O)CCOCCOCCOCCOCCOCCOCCOCCOCCOCCOCCOCCOCCOCCOCCOCCOCCOCCOCCOCCOCCOCCOCCOCCOCCNC(=O)CCC(=O)N2Cc3ccccc3-c3nn[nH]c3-c3ccccc32)ccc1-c1ccc(C[C@H](NC(=O)[C@H](CC(=O)O)NC(=O)[C@H](CO)NC(=O)[C@@H](NC(=O)[C@](C)(Cc2ccccc2F)NC(=O)[C@@H](NC(=O)CNC(=O)[C@H](Cc2nn[nH]n2)NC(=O)C(C)(C)C(=O)NCCc2cnc[nH]2)[C@@H](C)O)[C@@H](C)O)C(=O)N[C@@H](CCCc2cc(C)cc(C)c2)C(C)=O)cc1 [M2547]	–	–	267.8	–	38.6	81.7	–	–	–
CCc1cc(OCCCCNC(=O)CCOCCOCCOCCOCCOCCOCCOCCOCCOCCOCCOCCOCCOCCOCCOCCOCCOCCOCCOCCOCCOCCOCCOCCOCCNC(=O)CCC(=O)N2Cc3ccccc3C#Cc3ccccc32)ccc1-c1ccc(C[C@H](NC(=O)[C@H](CC(=O)O)NC(=O)[C@H](CO)NC(=O)[C@@H](NC(=O)[C@](C)(Cc2ccccc2F)NC(=O)[C@@H](NC(=O)CNC(=O)[C@H](Cc2nn[nH]n2)NC(=O)CCCCCc2cnc[nH]2)[C@@H](C)O)[C@@H](C)O)C(=O)N[C@@H](CCCc2cc(C)cc(C)c2)C(N)=O)cc1 [M2944] (X1-[Ala(1H-tetrazol-5-yl)]GT[αMePhe(2-F)]TSD[Bip(2'-Et-4'-O(CH2)4NH2)]([PEG24-Suc-DBCO])[Nva(5-(3,5-Me2Ph))]-NH2)	–	–	–	> 20	–	–	> 20	–	–
CCc1cc(OCCCCN)ccc1-c1ccc(C[C@H](NC(=O)[C@H](CC(=O)O)NC(=O)[C@H](CO)NC(=O)[C@@H](NC(=O)[C@](C)(Cc2ccccc2F)NC(=O)[C@@H](NC(=O)CNC(=O)[C@H](Cc2nn[nH]n2)NC(=O)[C@@H]2CCN(CCc3cnc[nH]3)C2)[C@@H](C)O)[C@@H](C)O)C(=O)N[C@@H](CCCc2cc(C)cc(C)c2)C(N)=O)cc1 [P17] (X9-[Ala(1H-tetrazol-5-yl)]GT[αMePhe(2-F)]TSD[Bip(2'-Et,4'-O(CH2)4NH2)][Nva(5-(3,5-Me2Ph))]-NH2)	1.0	> 200	–	–	–	–	–	–	–
CCc1cc(OCCCCNC(=O)[C@H](CO)NC(=O)CNC(=O)CNC(=O)CNC(=O)CN)ccc1-c1ccc(C[C@H](NC(=O)[C@H](CC(=O)O)NC(=O)[C@H](CO)NC(=O)[C@@H](NC(=O)[C@](C)(Cc2ccccc2F)NC(=O)[C@@H](NC(=O)CNC(=O)[C@H](Cc2nn[nH]n2)NC(=O)C(C)(C)C(=O)NCCc2cnc[nH]2)[C@@H](C)O)[C@@H](C)O)C(=O)N[C@@H](CCCc2cc(C)cc(C)c2)C(N)=O)cc1 [M2739, G4S-P9]	–	–	282.1	0.01	193.4	86.0	–	–	–
GCG [reference compound]	–	–	–	–	–	–	–	> 200	> 30
GLP2 [reference compound]	–	–	–	–	–	–	–	> 200	> 30
CCc1cc(OCCCCNC(=O)[C@H](CO)NC(=O)CNC(=O)CNC(=O)CNC(=O)CNC(=O)[C@H](CO)NC(=O)CNC(=O)CNC(=O)CNC(=O)CNC(=O)CCC(=O)N2Cc3ccccc3C#Cc3ccccc32)ccc1-c1ccc(C[C@H](NC(=O)[C@H](CC(=O)O)NC(=O)[C@H](CO)NC(=O)[C@@H](NC(=O)[C@](C)(Cc2ccccc2F)NC(=O)[C@@H](NC(=O)CNC(=O)[C@H](Cc2nn[nH]n2)NC(=O)C(C)(C)C(=O)NCCc2cnc[nH]2)[C@@H](C)O)[C@@H](C)O)C(=O)N[C@@H](CCCc2cc(C)cc(C)c2)C(N)=O)cc1 [LP17, DIBAC- suc-G4S- G4S-P9]	–	–	258.0	0.0542	50.4	109.4	–	–	–
